Test results taken from patent US7179825B2, “Retinoic acid mimetic anilides” (Janssen Pharmaceutica N.V., priority 1997, dated 2007).

test system: metabolism of retinoic acid in human breast cancer cells; test: Inhibition of retinoic acid (RA) metabolism (Example C.1); type: cell-based; settings: MCF-7 human breast cancer cells, 3H-RA as substrate; concentration needed to reduce the amount of metabolites to 50% of the control
Outline: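 MCF-7 cells, pre-stimulated with RA the day before, incubated with ³H-RA substrate and test compound in 1% DMSO. Polar ³H-metabolites separated from unmetabolized RA and counted by scintillation. IC50 is the concentration cutting metabolite formation to 50% of control, with blank run alongside.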

IC50	Structure (SMILES)
2.75 nM	C/C(=C\Cc1ccccc1)C(=O)Nc1ccc(C(C(C)C)n2ccnc2)cc1 (racemic) [Compound 589]
14.5 nM	Cc1ccc(CC(=O)Nc2ccc(C(C(C)C)n3ccnc3)cc2)cc1 (racemic) [Compound 666]
13 nM	CCOc1ccc(NC(=O)Nc2ccc(C(C(C)C)n3ccnc3)cc2)cc1 (racemic) [Compound 707]
3.41 nM	CC(C)C(c1ccc(NC(=O)c2ccoc2)cc1)n1ccnc1 (racemic) [Compound 172]
2.76 nM	CCC(CC)C(c1ccc(NC(=O)Cc2ccc3c(c2)OCO3)cc1)n1ccnc1 (racemic) [Compound 28]
21.5 nM	COc1ccc(CC(=O)Nc2ccc(C(C(C)C)n3ccnc3)cc2)cc1OC (stereo not drawn) [Compound 140]
15.9 nM	CC(C)C(c1ccc(NC(=O)Nc2cccc(C(F)(F)F)c2)cc1)n1ccnc1 (racemic) [Compound 730]
5.17 nM	CC(C)C(c1ccc(NC(=O)c2ccsc2)cc1)n1ccnc1 (racemic) [Compound 173]
1.5 nM	C/C(=C\c1ccccc1)C(=O)Nc1ccc(C(C(C)N(C)C)n2cncn2)cc1 (single isomer, unassigned) [Compound 332]
0.0109 nM	CCC(CC)C(c1ccc(NC(=O)Cc2ccc(OCc3cccnc3)cc2)cc1)n1ccnc1 (stereo not drawn) [Compound 130]
0.261 nM	CC(C)C(c1ccc(NC(=O)Nc2ccccc2)cc1)n1ccnc1 (racemic) [Compound 742]
1.65 nM	CCC(CC)C(c1ccc(NC(=O)c2ccc(OC)c(OC)c2)cc1)n1cncn1 (racemic) [Compound 6]
3.32 nM	CC(C)C(c1ccc(NC(=O)C(C)(C)Oc2ccc(Cl)cc2)cc1)n1ccnc1 (racemic) [Compound 222]
84.8 nM	C/C(=C\c1ccc(F)cc1)C(=O)Nc1ccc(C(C(C)C)n2cncn2)cc1 (racemic) [Compound 157]
0.0247 nM	CCC(CC)C(c1ccc(NC(=O)Cc2ccc(OC)c(C)c2)cc1)n1ccnc1 (racemic) [Compound 123]
19.8 nM	CC(=Cc1ccccc1)C(=O)Nc1ccc(C(C(C)Sc2ccccc2)n2ccnc2)cc1 (single isomer, unassigned) [Compound 483]
4.07 nM	CCCCCC(CC)C(c1ccc(NC(=O)C(C)=Cc2ccccc2)cc1)n1ccnc1 (single isomer, unassigned) [Compound 492]
4.1 nM	CC(C)C(c1ccc(NC(=O)Cc2ccc(Cl)cc2)cc1)n1cncn1 (stereo not drawn) [Compound 131]
0.81 nM	CCC(C)C(c1ccc(NC(=O)Cc2ccc(O)c(OC)c2)cc1)n1ccnc1 (stereo not drawn) [Compound 432]
> 100 nM	CC(C)C(c1ccc(NC(=O)C(c2ccccc2)C2CCCC2)cc1)n1ccnc1 (mixture of isomers) [Compound 659]
1.95 nM	CCOc1ccc(CC(=O)Nc2ccc(C(C(C)C)n3ccnc3)cc2)cc1 (racemic) [Compound 663]

IC50	Structure (SMILES)
149 nM	CCC/C(=C\c1ccccc1)C(=O)Nc1ccc(C(C(C)C)n2ccnc2)cc1 (racemic) [Compound 464]
48.8 nM	C/C(=C\C(C)C)C(=O)Nc1ccc(C(C(C)C)n2ccnc2)cc1 (stereo not drawn) [Compound 588]
42.1 nM	CC(C)C(c1ccc(NC(=O)Nc2ccc(Cl)cc2)cc1)n1ccnc1 (racemic) [Compound 739]
0.131 nM	CCC(CC)C(c1ccc(NC(=O)Cc2ccccc2OC)cc1)n1ccnc1 (racemic) [Compound 89]
4.07 nM	COCC(=O)Nc1ccc(C(C(C)C)n2ccnc2)cc1 (stereo not drawn) [Compound 212]
0.257 nM	CC(C(c1ccc(NC(=O)CN2CCN(C)CC2)cc1)n1ccnc1)N(C)C (single isomer, unassigned) [Compound 352]
2.78 nM	C/C(=C\c1ccc2ncccc2c1)C(=O)Nc1ccc(C(C(C)C)n2ccnc2)cc1 (racemic) [Compound 590]
85.8 nM	CC(C(=O)Nc1ccc(C(C(C)C)n2ccnc2)cc1)=C(c1ccccc1)c1cccnc1 (mixture of isomers) [Compound 171]
0.321 nM	CCC(CC)C(c1ccc(NC(=O)Cc2cccc(O)c2)cc1)n1ccnc1.O=C(O)C(=O)O (racemic) [Compound 109]
1.58 nM	COc1ccc(/C=C(\C)C(=O)Nc2ccc(C(C(C)C)n3ccnc3)cc2)cc1 (racemic) [Compound 582]
0.852 nM	CCC(CC)C(c1ccc(NC(=O)Cc2ccc(Cl)cc2OC)cc1)n1ccnc1 (racemic) [Compound 113]
36.9 nM	CC(C)C(c1ccc(NC(=O)c2ccc3ccccc3c2)cc1)n1ccnc1 (racemic) [Compound 179]
2.45 nM	CC(C)C(c1ccc(NC(=O)Nc2cnccn2)cc1)n1ccnc1 (racemic) [Compound 271]
3.22 nM	C/C(=C\c1ccccc1)C(=O)Nc1ccc(C(C(C)C)n2ccnc2)cc1 (single isomer, unassigned) [Compound 458]
0.172 nM	CCC(CC)C(c1ccc(NC(=O)c2ccc(OC)nc2)cc1)n1ccnc1 (racemic) [Compound 45]
> 100 nM	CC(C)C(c1ccc(NC(=O)c2ccc(-c3ccccc3)cc2)cc1)n1ccnc1 (racemic) [Compound 238]
1.97 nM	CCC(c1ccc(NC(=O)Cc2ccc(Cl)cc2)cc1)n1ccnc1 (stereo not drawn) [Compound 372]
0.367 nM	CCN(C)C(C)C(c1ccc(NC(=O)Cc2ccc(OC)c(OC)c2)cc1)n1ccnc1 (single isomer, unassigned) [Compound 416]
1.08 nM	CC(C)C(c1ccc(NC(=O)c2cccc(F)c2)cc1)n1ccnc1 (stereo not drawn) [Compound 221]
1.55 nM	CCC(CC)C(c1ccc(NC(=O)CCc2ccc(OC)c(OC)c2)cc1)n1cncn1 (racemic) [Compound 10]
0.953 nM	CCC(CC)C(c1ccc(NC(=O)Cc2ccc(C)c(OC)c2)cc1)n1ccnc1 (racemic) [Compound 110]

test system: Ovariectomized rats; test: Vaginal keratinization test on ovariectomized rats (Example C.2); type: in vivo; settings: estradiol undecylate induced keratinization, per os once daily on days 1-3, active dose = 50% of rats show complete suppression
Outline: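 Ovariectomized rats given s.c. estradiol undecylate (100 μg per 100 g body weight in sesame oil), then oral compound once daily on days 1-3 (vehicle PEG 200). Vaginas assessed histologically one day after last dose; lowest active dose (mg/kg) is the dose giving complete keratinization suppression in 50% of rats.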

Structure (SMILES)	LAD (lowest active dose)
C/C(=C\Cc1ccccc1)C(=O)Nc1ccc(C(C(C)C)n2ccnc2)cc1 (racemic) [Compound 589]	10.00 mg/kg
Cc1ccc(CC(=O)Nc2ccc(C(C(C)C)n3ccnc3)cc2)cc1 (racemic) [Compound 666]	2.50 mg/kg
CCOc1ccc(NC(=O)Nc2ccc(C(C(C)C)n3ccnc3)cc2)cc1 (racemic) [Compound 707]	5.00 mg/kg
CC(C)C(c1ccc(NC(=O)c2ccoc2)cc1)n1ccnc1 (racemic) [Compound 172]	10.00 mg/kg
CCC(CC)C(c1ccc(NC(=O)Cc2ccc3c(c2)OCO3)cc1)n1ccnc1 (racemic) [Compound 28]	2.50 mg/kg
COc1ccc(CC(=O)Nc2ccc(C(C(C)C)n3ccnc3)cc2)cc1OC (stereo not drawn) [Compound 140]	5.00 mg/kg
CC(C)C(c1ccc(NC(=O)Nc2cccc(C(F)(F)F)c2)cc1)n1ccnc1 (racemic) [Compound 730]	>10.00 mg/kg
CC(C)C(c1ccc(NC(=O)c2ccsc2)cc1)n1ccnc1 (racemic) [Compound 173]	10.00 mg/kg
C/C(=C\c1ccccc1)C(=O)Nc1ccc(C(C(C)N(C)C)n2cncn2)cc1 (single isomer, unassigned) [Compound 332]	>2.50 mg/kg
CCC(CC)C(c1ccc(NC(=O)Cc2ccc(OCc3cccnc3)cc2)cc1)n1ccnc1 (stereo not drawn) [Compound 130]	5.00 mg/kg
CC(C)C(c1ccc(NC(=O)Nc2ccccc2)cc1)n1ccnc1 (racemic) [Compound 742]	10.00 mg/kg
CCC(CC)C(c1ccc(NC(=O)c2ccc(OC)c(OC)c2)cc1)n1cncn1 (racemic) [Compound 6]	2.50 mg/kg
CC(C)C(c1ccc(NC(=O)C(C)(C)Oc2ccc(Cl)cc2)cc1)n1ccnc1 (racemic) [Compound 222]	20.00 mg/kg
C/C(=C\c1ccc(F)cc1)C(=O)Nc1ccc(C(C(C)C)n2cncn2)cc1 (racemic) [Compound 157]	>10.00 mg/kg
CCC(CC)C(c1ccc(NC(=O)Cc2ccc(OC)c(C)c2)cc1)n1ccnc1 (racemic) [Compound 123]	2.50 mg/kg
CC(=Cc1ccccc1)C(=O)Nc1ccc(C(C(C)Sc2ccccc2)n2ccnc2)cc1 (single isomer, unassigned) [Compound 483]	>5.00 mg/kg
CCCCCC(CC)C(c1ccc(NC(=O)C(C)=Cc2ccccc2)cc1)n1ccnc1 (single isomer, unassigned) [Compound 492]	>2.50 mg/kg
CC(C)C(c1ccc(NC(=O)Cc2ccc(Cl)cc2)cc1)n1cncn1 (stereo not drawn) [Compound 131]	5.00 mg/kg
CCC(C)C(c1ccc(NC(=O)Cc2ccc(O)c(OC)c2)cc1)n1ccnc1 (stereo not drawn) [Compound 432]	>2.50 mg/kg
CC(C)C(c1ccc(NC(=O)C(c2ccccc2)C2CCCC2)cc1)n1ccnc1 (mixture of isomers) [Compound 659]	>10.00 mg/kg
CCOc1ccc(CC(=O)Nc2ccc(C(C(C)C)n3ccnc3)cc2)cc1 (racemic) [Compound 663]	2.50 mg/kg

Structure (SMILES)	LAD (lowest active dose)
CCC/C(=C\c1ccccc1)C(=O)Nc1ccc(C(C(C)C)n2ccnc2)cc1 (racemic) [Compound 464]	>20.00 mg/kg
C/C(=C\C(C)C)C(=O)Nc1ccc(C(C(C)C)n2ccnc2)cc1 (stereo not drawn) [Compound 588]	10.00 mg/kg
CC(C)C(c1ccc(NC(=O)Nc2ccc(Cl)cc2)cc1)n1ccnc1 (racemic) [Compound 739]	>10.00 mg/kg
CCC(CC)C(c1ccc(NC(=O)Cc2ccccc2OC)cc1)n1ccnc1 (racemic) [Compound 89]	2.50 mg/kg
COCC(=O)Nc1ccc(C(C(C)C)n2ccnc2)cc1 (stereo not drawn) [Compound 212]	20.00 mg/kg
CC(C(c1ccc(NC(=O)CN2CCN(C)CC2)cc1)n1ccnc1)N(C)C (single isomer, unassigned) [Compound 352]	>5.00 mg/kg
C/C(=C\c1ccc2ncccc2c1)C(=O)Nc1ccc(C(C(C)C)n2ccnc2)cc1 (racemic) [Compound 590]	>10.00 mg/kg
CC(C(=O)Nc1ccc(C(C(C)C)n2ccnc2)cc1)=C(c1ccccc1)c1cccnc1 (mixture of isomers) [Compound 171]	>10.00 mg/kg
CCC(CC)C(c1ccc(NC(=O)Cc2cccc(O)c2)cc1)n1ccnc1.O=C(O)C(=O)O (racemic) [Compound 109]	2.50 mg/kg
COc1ccc(/C=C(\C)C(=O)Nc2ccc(C(C(C)C)n3ccnc3)cc2)cc1 (racemic) [Compound 582]	>10.00 mg/kg
CCC(CC)C(c1ccc(NC(=O)Cc2ccc(Cl)cc2OC)cc1)n1ccnc1 (racemic) [Compound 113]	>2.50 mg/kg
CC(C)C(c1ccc(NC(=O)c2ccc3ccccc3c2)cc1)n1ccnc1 (racemic) [Compound 179]	>10.00 mg/kg
CC(C)C(c1ccc(NC(=O)Nc2cnccn2)cc1)n1ccnc1 (racemic) [Compound 271]	10.00 mg/kg
C/C(=C\c1ccccc1)C(=O)Nc1ccc(C(C(C)C)n2ccnc2)cc1 (single isomer, unassigned) [Compound 458]	5.00 mg/kg
CCC(CC)C(c1ccc(NC(=O)c2ccc(OC)nc2)cc1)n1ccnc1 (racemic) [Compound 45]	2.50 mg/kg
CC(C)C(c1ccc(NC(=O)c2ccc(-c3ccccc3)cc2)cc1)n1ccnc1 (racemic) [Compound 238]	5.00 mg/kg
CCC(c1ccc(NC(=O)Cc2ccc(Cl)cc2)cc1)n1ccnc1 (stereo not drawn) [Compound 372]	5.00 mg/kg
CCN(C)C(C)C(c1ccc(NC(=O)Cc2ccc(OC)c(OC)c2)cc1)n1ccnc1 (single isomer, unassigned) [Compound 416]	>5.00 mg/kg
CC(C)C(c1ccc(NC(=O)c2cccc(F)c2)cc1)n1ccnc1 (stereo not drawn) [Compound 221]	10.00 mg/kg
CCC(CC)C(c1ccc(NC(=O)CCc2ccc(OC)c(OC)c2)cc1)n1cncn1 (racemic) [Compound 10]	2.50 mg/kg
CCC(CC)C(c1ccc(NC(=O)Cc2ccc(C)c(OC)c2)cc1)n1ccnc1 (racemic) [Compound 110]	>2.50 mg/kg
